Measured values reported in ChEMBL document CHEMBL1201862, “PubChem BioAssay data set” (2004).
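Dose response: 5 concentrations. Exposure: 48 h. Format: 96-well plates. Endpoint: linear interpolation; highest concentration if not reached. Abbreviation: GI50, concentration required for 50% inhibition of growth.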 Activity calls are given as the source filed them. Rule as the data show it: active = GI50 up to about 1.1 µM and inactive = higher.

What was measured:
Assay in all cases: NCI-60 cell line screen, 48 h
CAKI-1 = system: CAKI-1
CCRF-CEM = system: CCRF-CEM
EKVX = system: EKVX
HCC 2998 = system: HCC 2998
IGROV-1 = system: IGROV-1
LOX IMVI = system: LOX IMVI
MOLT-4 = system: MOLT-4
NCI-H460 = system: NCI-H460
SK-MEL-28 = system: SK-MEL-28
SK-MEL-5 = system: SK-MEL-5
SN12C = system: SN12C
UACC-62 = system: UACC-62
UO-31 = system: UO-31
786-0 = system: 786-0
A549 = system: A549
MCF7 = system: MCF7
MDA-MB-231 = system: MDA-MB-231
MDA-N = system: MDA-N
SNB-19 = system: SNB-19
NCI/ADR-RES = system: NCI/ADR-RES

Compound | GI50 (CAKI-1) | GI50 (CCRF-CEM) | GI50 (EKVX) | GI50 (HCC 2998) | GI50 (IGROV-1) | GI50 (LOX IMVI) | GI50 (MOLT-4) | GI50 (NCI-H460) | GI50 (SK-MEL-28) | GI50 (SK-MEL-5) | GI50 (SN12C) | GI50 (UACC-62) | GI50 (UO-31) | GI50 (786-0) | GI50 (A549) | GI50 (MCF7) | GI50 (MDA-MB-231) | GI50 (MDA-N) | GI50 (SNB-19) | GI50 (NCI/ADR-RES)
CN1C(=O)CN2C(Cl)(Cl)C2(c2ccccc2F)c2cc([N+](=O)[O-])ccc21 (stereo not given) | > 100 µM (inactive) | 29 µM (inactive) | 30.4 µM (inactive) | 22.7 µM (inactive) | 63.8 µM (inactive) | 35.7 µM (inactive) | 17.3 µM (inactive) | 33.2 µM (inactive) | > 100 µM (inactive) | 26.8 µM (inactive) | 25.2 µM (inactive) | 28.6 µM (inactive) | 42.7 µM (inactive) | – | – | – | – | – | – | –
CCc1ccccc1NC(=O)/C=C/c1ccccc1 | > 100 µM (inactive) | > 100 µM (inactive) | > 100 µM (inactive) | > 100 µM (inactive) | – | > 100 µM (inactive) | > 100 µM (inactive) | > 100 µM (inactive) | > 100 µM (inactive) | > 100 µM (inactive) | > 100 µM (inactive) | > 100 µM (inactive) | – | > 100 µM (inactive) | > 100 µM (inactive) | > 100 µM (inactive) | > 100 µM (inactive) | > 100 µM (inactive) | > 100 µM (inactive) | –
CC(/C=C/c1ncccc1OCCCCCC(=O)O)=N\NC1=NCCN1 | > 100 µM (inactive) | > 100 µM (inactive) | > 100 µM (inactive) | > 100 µM (inactive) | > 100 µM (inactive) | > 100 µM (inactive) | > 100 µM (inactive) | > 100 µM (inactive) | > 100 µM (inactive) | – | > 100 µM (inactive) | > 100 µM (inactive) | > 100 µM (inactive) | – | > 100 µM (inactive) | – | – | – | > 100 µM (inactive) | –
COc1ccc2c(c1)OCC1=C2Oc2ccccc2C1 | 49.7 µM (inactive) | – | 30.3 µM (inactive) | 24 µM (inactive) | 7.19 µM (inactive) | 21.4 µM (inactive) | 20.3 µM (inactive) | – | – | 13.9 µM (inactive) | 39.3 µM (inactive) | 69 µM (inactive) | 50.4 µM (inactive) | 38 µM (inactive) | 48.5 µM (inactive) | – | 23.5 µM (inactive) | 25 µM (inactive) | – | 44.4 µM (inactive)
CC1(C)OP(=O)(c2ccccc2)C=C1Br (stereo not given) | > 100 µM (inactive) | – | > 100 µM (inactive) | > 100 µM (inactive) | > 100 µM (inactive) | > 100 µM (inactive) | – | > 100 µM (inactive) | > 100 µM (inactive) | > 100 µM (inactive) | > 100 µM (inactive) | > 100 µM (inactive) | – | > 100 µM (inactive) | > 100 µM (inactive) | – | – | > 100 µM (inactive) | > 100 µM (inactive) | > 100 µM (inactive)
C[C@H](NC(=O)OC1C2C=CC(O)C1CC2)c1ccccc1 (stereo not given in full) | > 100 µM (inactive) | 81.1 µM (inactive) | > 100 µM (inactive) | > 100 µM (inactive) | > 100 µM (inactive) | > 100 µM (inactive) | > 100 µM (inactive) | 80 µM (inactive) | > 100 µM (inactive) | > 100 µM (inactive) | > 100 µM (inactive) | > 100 µM (inactive) | > 100 µM (inactive) | 38.1 µM (inactive) | > 100 µM (inactive) | – | – | – | > 100 µM (inactive) | –
Cc1ccc(C2C(Cl)C(=O)N2n2cnc3ccccc3c2=O)cc1 (stereo not given) | > 100 µM (inactive) | > 100 µM (inactive) | 26.5 µM (inactive) | > 100 µM (inactive) | > 100 µM (inactive) | > 100 µM (inactive) | 39.4 µM (inactive) | > 100 µM (inactive) | > 100 µM (inactive) | 82.2 µM (inactive) | > 100 µM (inactive) | 99.8 µM (inactive) | 23.4 µM (inactive) | > 100 µM (inactive) | > 100 µM (inactive) | – | – | – | 44 µM (inactive) | –
O=NN(CCCl)C(=O)N[C@H]1CC[C@@H](CC(=O)O)CC1 | > 100 µM (inactive) | 28.6 µM (inactive) | > 100 µM (inactive) | > 100 µM (inactive) | > 100 µM (inactive) | > 54.2 µM (inactive) | 44 µM (inactive) | 55.2 µM (inactive) | > 100 µM (inactive) | > 100 µM (inactive) | > 100 µM (inactive) | 35.2 µM (inactive) | > 100 µM (inactive) | – | > 100 µM (inactive) | > 100 µM (inactive) | – | – | 99.3 µM (inactive) | > 100 µM (inactive)
O=C1N/C(=N\C2CCCCC2)C2(CCN(CCCC3(c4ccc(F)cc4)OCCO3)CC2)N1c1ccccc1 | 22.8 µM (inactive) | 29 µM (inactive) | 16.8 µM (inactive) | – | – | 22.8 µM (inactive) | 15.1 µM (inactive) | – | 18.6 µM (inactive) | 15 µM (inactive) | 20.4 µM (inactive) | > 10 µM (inactive) | 12.6 µM (inactive) | 16.6 µM (inactive) | 21.4 µM (inactive) | 21.2 µM (inactive) | – | 15.4 µM (inactive) | 18.5 µM (inactive) | 24.3 µM (inactive)
CC(=O)Nc1ccc2c3c(cc(O)c2c1)N(C(=O)CCCC(=O)N1CC(CCl)c2c1cc(O)c1cc(NC(C)=O)ccc21)CC3CCl (stereo not given) | < 0.01 µM (active) | < 0.01 µM (active) | 0.0423 µM (active) | 0.0122 µM (active) | 0.0102 µM (active) | < 0.01 µM (active) | < 0.01 µM (active) | < 0.01 µM (active) | 0.0201 µM (active) | 0.0108 µM (active) | < 0.01 µM (active) | < 0.01 µM (active) | < 0.0166 µM (active) | < 0.01 µM (active) | < 0.01 µM (active) | < 0.01 µM (active) | < 0.01 µM (active) | – | < 0.01 µM (active) | 0.0828 µM (active)
O=C(/C=C/C1C(=O)NC(=O)NC1=O)CC(=O)C(=O)Nc1cc(Cl)c(Cl)cc1Cl | > 100 µM (inactive) | > 100 µM (inactive) | > 100 µM (inactive) | > 100 µM (inactive) | > 100 µM (inactive) | > 100 µM (inactive) | > 100 µM (inactive) | > 100 µM (inactive) | > 100 µM (inactive) | > 100 µM (inactive) | > 100 µM (inactive) | > 100 µM (inactive) | > 100 µM (inactive) | > 100 µM (inactive) | > 100 µM (inactive) | – | – | – | > 100 µM (inactive) | –
CC1OC(OCC2OC(Oc3c(-c4ccc(O)cc4)oc4cc(O)cc(O)c4c3=O)C(OC3OC(C)C(O)C(O)C3O)C(O)C2O)C(O)C(O)C1O (stereo not given) | > 100 µM (inactive) | > 51.5 µM (inactive) | > 100 µM (inactive) | > 100 µM (inactive) | > 100 µM (inactive) | > 63.1 µM (inactive) | > 100 µM (inactive) | > 68.9 µM (inactive) | > 100 µM (inactive) | > 100 µM (inactive) | > 100 µM (inactive) | > 100 µM (inactive) | > 100 µM (inactive) | > 100 µM (inactive) | > 100 µM (inactive) | – | – | – | > 100 µM (inactive) | –
O=C(O)CNS(=O)(=O)c1ccc(NC(=O)c2ccc([N+](=O)[O-])cc2)cc1 | > 100 µM (inactive) | > 100 µM (inactive) | > 100 µM (inactive) | > 100 µM (inactive) | > 100 µM (inactive) | > 100 µM (inactive) | > 100 µM (inactive) | > 100 µM (inactive) | > 100 µM (inactive) | > 100 µM (inactive) | > 100 µM (inactive) | > 100 µM (inactive) | > 100 µM (inactive) | > 100 µM (inactive) | > 100 µM (inactive) | – | – | – | > 100 µM (inactive) | –
COc1cc(C2c3cc4c(cc3[C@@H](Nc3ccc(C(=O)O)cc3)C3COC(=O)[C@H]23)OCO4)cc(OC)c1O (stereo not given in full) | 4.98 µM (inactive) | 2.78 µM (inactive) | 27.4 µM (inactive) | 28.4 µM (inactive) | 17.8 µM (inactive) | 4.41 µM (inactive) | 0.721 µM (active) | 2.39 µM (inactive) | 27.5 µM (inactive) | 12.1 µM (inactive) | 31.7 µM (inactive) | 10.6 µM (inactive) | 22.5 µM (inactive) | – | 18.3 µM (inactive) | – | – | – | 6.14 µM (inactive) | –
CCC(=O)O[C@@H]1C2C(OC(C)=O)C34COC(C)([C@@H]3C3C(C[C@]3(C)OC(C)=O)[C@@H](OC(=O)c3ccccc3)C4=O)[C@H](OC(C)=O)[C@@]2(OC(C)=O)C[C@@H]1C (stereo not given in full) | > 100 µM (inactive) | 17.5 µM (inactive) | 87.1 µM (inactive) | 64.7 µM (inactive) | 13.7 µM (inactive) | 32 µM (inactive) | > 100 µM (inactive) | > 100 µM (inactive) | > 100 µM (inactive) | 13.5 µM (inactive) | > 100 µM (inactive) | 75.9 µM (inactive) | 59.8 µM (inactive) | 11.7 µM (inactive) | > 100 µM (inactive) | – | – | – | 14 µM (inactive) | –
C/C(=N\N=C(/S)N1CC2CCC(CC2)C1)c1ccncn1 | < 0.01 µM (active) | < 0.01 µM (active) | < 0.01 µM (active) | – | < 0.01 µM (active) | < 0.01 µM (active) | < 0.01 µM (active) | < 0.01 µM (active) | 0.863 µM (active) | < 0.01 µM (active) | 0.0152 µM (active) | < 0.01 µM (active) | < 0.01 µM (active) | 0.0103 µM (active) | < 0.01 µM (active) | < 0.01 µM (active) | – | 0.189 µM (active) | 0.198 µM (active) | < 0.01 µM (active)
